According to PubChem BioAssay AID2060601 (Molecular Pharmacology Branch, DTP, NCI, 2025):
Several values for one entry are separate records, joined by “and”; a condition that tells them apart may be missing. Identical values can stand only once. Values belong to the compound of their own block, whether it stands above or below them.

System: 874868-142-R-J2-PDC complex spheroids, growth % test/control
Experiment: Anticancer human tumor 874868-142-R-J2-PDC patient-derived head and neck squamous carcinoma cell line growth inhibition [CLK]
Conditions: for viability, T/C: stronger effect = lower value
Text: A high-throughput screen of multi-cell type tumor spheroids was designed to identify active combinations of […] and targeted small molecules. Complex spheroids include a stromal component modeled by human endothelial cells (HUVEC) and fibroblasts modeled by human mesenchymal stem cells (MSCs). The concentration ranges selected for each drug and investigational agent were based upon clinically achievable concentrations if the clinical Cmax of the agent was known.
Compounds. The drugs and investigational agents: cirtuvivint (SM08502; NSC835563), CC-671 (NSC850746), vemurafenib (NSC761431), tapotoclax (NSC804041), sotorasib (NSC818433), adagrasib (NSC831453), MRTX-1133 (NSC836407), BAY2416964 (NSC825713), copanlisib (NSC816437), inavolisib (NSC800729), abemaciclib (NSC768073), osimertinib (NSC779217), entinostat (NSC756642), eltanexor (KPT-8602, NSC794443), venetoclax (NSC766270), ceralasertib (NSC777638), bortezomib (NSC756655), olaparib (NSC753686), talazoparib (NSC767125), alisertib (NSC759677), peposertib (NSC802822), gemcitabine (NSC613327), 5-fluorouracil (NSC19893), SN-38 (NSC673596), oxaliplatin (NSC266046), paclitaxel (NSC125973), and doxorubicin (NSC123127), were obtained from the National Cancer Institute (NCI) Developmental Therapeutics Program Chemical Repository. The FDA-approved anticancer drug set is available from the Developmental Therapeutics Program at https://dtp.cancer.gov/organization/dscb/obtaining/available plates.htm. […] The stock solutions were prepared in dimethyl sulfoxide (DMSO, Sigma-Aldrich, St. Louis, MO, cat. D2650), except for the platinum complexes which were prepared in saline (Quality Biological, Gaithersburg, MD, cat. 114-055-101), at 800-fold the tested concentration and stored at -70 degrees C prior to their use. All drugs and investigational agents were tested over a range starting from a high concentration at or near the clinical Cmax and decreasing in half-log increments. If the clinical Cmax for an agent had not been determined, the highest concentration tested was 10 microM.
Cell Culture. All cells were maintained in an incubator at 37 degrees C and 5% CO2 with 95% humidity. The PDC lines were cultured according to standard operating procedures established by the NCI PDMR. Briefly, all PDCs were thawed and cultured in Matrigel-coated flasks prepared with a working solution of 1X Ham's F-12 nutrient mix, without supplementation (Invitrogen, Waltham, MA, cat. 11765054), 100 U/mL penicillin-streptomycin (Invitrogen, cat. 15140122), and 2.5% Matrigel (Corning Inc., Corning, NY, cat. 354248) for the first three passages. The 947758-054-R-J2-PDC line was cultured in 6B/Colon 1A media, which includes advanced DMEM/F-12 (Thermo Fisher Scientific, cat. 12634028), 10 mM HEPES (Thermo Fisher Scientific, cat. 15630080), 1X GlutaMAX supplement (Thermo Fisher Scientific, cat. 35050061), 0.1 mg/mL primocin (InvivoGen, cat. ant-pm-2), 10% defined fetal bovine serum, heat inactivated (HyClone Laboratories Inc., cat. SH30070.03HI), 1.25 mM N-Acetyl-L-cysteine (Sigma-Aldrich, cat. A9165), 10 mM nicotinamide (Sigma-Aldrich, cat. N0636), 1X B-27 supplement (Thermo Fisher Scientific, cat. 17504044), 1X N-2 supplement (Thermo Fisher Scientific, cat. 17502048), and 10 microM Y-27632 dihydrochloride (Tocris Bioscience, cat. 1254). The 876862-298-R-J1-PDC was cultured in 6E media, which includes all 6B/Colon 1A media components plus 50% L-WRN conditioned media (ATCC, cat. CRL-3276), 50 ng/mL recombinant human EGF recombinant protein (hEGF; Thermo Fisher Scientific, cat. PHG0311), 10 ng/mL recombinant human fibroblast growth factor 10 (hGFG-10; PeproTech, cat. 100-26), 1 ng/mL recombinant human fibroblast growth factor 2 (hFGF-2; PeproTech, cat. 100-18B), and 1 µM prostaglandin E2 (PGE2; Tocris, cat. 2296). The 227483-062-R1-J1-PDC line was cultured in Panc media, containing all 6E components except hFGF-2, with the addition of 500 nM SB-431542 (Selleckchem, cat. S1067) and 10 nM gastrin (Tocris, cat. 3006). […]

[1] = curve of first compound, second compound 0.0316 µM
[2] = curve of first compound, second compound 0.1 µM
[3] = curve of first compound, second compound 0.316 µM
[4] = curve of first compound, second compound 1 µM
[5] = curve of first compound, second compound 3.16 µM
[6] = curve of first compound, second compound 10 µM
[7] = second compound 0.0316 µM, first compound 0.0316 µM
[8] = second compound 0.0316 µM, first compound 0.1 µM
[9] = second compound 0.0316 µM, first compound 0.316 µM
[10] = second compound 0.0316 µM, first compound 1 µM
[11] = second compound 0.0316 µM, first compound 3.16 µM
[12] = second compound 0.0316 µM, first compound 10 µM
[13] = second compound 0.1 µM, first compound 0.0316 µM
[14] = second compound 0.1 µM, first compound 0.1 µM
[15] = second compound 0.1 µM, first compound 0.316 µM
[16] = second compound 0.1 µM, first compound 1 µM
[17] = second compound 0.1 µM, first compound 3.16 µM
[18] = second compound 0.1 µM, first compound 10 µM
[19] = second compound 0.316 µM, first compound 0.0316 µM
[20] = second compound 0.316 µM, first compound 0.1 µM
[21] = second compound 0.316 µM, first compound 0.316 µM
[22] = second compound 0.316 µM, first compound 1 µM
[23] = second compound 0.316 µM, first compound 3.16 µM
[24] = second compound 0.316 µM, first compound 10 µM
[25] = second compound 1 µM, first compound 0.0316 µM
[26] = second compound 1 µM, first compound 0.1 µM
[27] = second compound 1 µM, first compound 0.316 µM
[28] = second compound 1 µM, first compound 1 µM
[29] = second compound 1 µM, first compound 3.16 µM
[30] = second compound 1 µM, first compound 10 µM
[31] = second compound 3.16 µM, first compound 0.0316 µM
[32] = second compound 3.16 µM, first compound 0.1 µM
[33] = second compound 3.16 µM, first compound 0.316 µM
[34] = second compound 3.16 µM, first compound 1 µM
[35] = second compound 3.16 µM, first compound 3.16 µM
[36] = second compound 3.16 µM, first compound 10 µM
[37] = second compound 10 µM, first compound 0.0316 µM
[38] = second compound 10 µM, first compound 0.1 µM
[39] = second compound 10 µM, first compound 0.316 µM
[40] = second compound 10 µM, first compound 1 µM
[41] = second compound 10 µM, first compound 3.16 µM
[42] = second compound 10 µM, first compound 10 µM
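Also: spheroids exposed to the compounds for 7 days.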

SMILES: CNC(=O)c1ccc(Nc2nc(OC3CCCC3)c3c(-c4ccc5nc(C)oc5c4)c[nH]c3n2)c(OC)c1
viability, T/C (compound 0.1 µM): 89.6% [middle of 11 runs]
viability, T/C (compound 0.316 µM): 60.3% [middle of 11 runs]
viability, T/C (compound 1 µM): 50% [middle of 10 runs]
viability, T/C (compound 3.16 µM): 44.5% [middle of 11 runs]
viability, T/C (compound 10 µM): 42.6% [middle of 11 runs]

IC50 (curve of compound): 2120 nM and 3830 nM
SMILES: COc1ccc([C@@H](O)c2cc(-c3ncnc4cc(N5CCOCC5)ccc34)c(F)cc2Cl)nn1
viability, T/C (compound 0.0316 µM): 93.7% and 87.2%
viability, T/C (compound 0.1 µM): 92% and 97.7%
viability, T/C (compound 0.316 µM): 84.4% and 85%
viability, T/C (compound 1 µM): 67.6% and 79.7%
viability, T/C (compound 3.16 µM): 40.5% and 54.6%
viability, T/C (compound 10 µM): 24.7% and 26.3%

IC50 (curve of compound): 86.8 nM and 114 nM
SMILES: COc1cccc2c1C(=O)c1c(O)c3c(c(O)c1C2=O)CC(O)(C(=O)CO)CC3OC1CC(N)C(O)C(C)O1 (stereo not given)
viability, T/C (compound 0.0316 µM): 74.8% and 74.3%
viability, T/C (compound 0.1 µM): 46.2% and 52.2%
viability, T/C (compound 0.316 µM): 18.9% and 27.4%
viability, T/C (compound 1 µM): 3.91% and 6.75%
viability, T/C (compound 3.16 µM): 0.09% and 0.19%
viability, T/C (compound 10 µM): 0.19% and 0.2%

SMILES: C=CC(=O)N1CCN(c2nc(=O)n(-c3c(C)ccnc3C(C)C)c3nc(-c4c(O)cccc4F)c(F)cc23)C(C)C1 (stereo not given) + CN1CCN(c2cc(C(=O)Nc3cc4cc(-c5cnn(C)c5)ccc4cn3)ccn2)CC1
IC50 [1]: > 10000 nM
IC50 [2]: > 10000 nM
IC50 [3]: < 31.6 nM
IC50 [4]: < 31.6 nM
IC50 [5]: < 31.6 nM
IC50 [6]: < 31.6 nM
viability, T/C [7]: 86.4%
viability, T/C [8]: 98.4%
viability, T/C [9]: 96.1%
viability, T/C [10]: 131%
viability, T/C [11]: 129%
viability, T/C [12]: 125%
viability, T/C [13]: 81%
viability, T/C [14]: 73.3%
viability, T/C [15]: 82.2%
viability, T/C [16]: 86.3%
viability, T/C [17]: 93.9%
viability, T/C [18]: 109%
viability, T/C [19]: 16.9%
viability, T/C [20]: 16.9%
viability, T/C [21]: 21.9%
viability, T/C [22]: 11.1%
viability, T/C [23]: 17.8%
viability, T/C [24]: 12.2%
viability, T/C [25]: 0.5%
viability, T/C [26]: 0.38%
viability, T/C [27]: 0.54%
viability, T/C [28]: 2.26%
viability, T/C [29]: 0.49%
viability, T/C [30]: 0.41%
viability, T/C [31]: 0.17%
viability, T/C [32]: 2.77%
viability, T/C [33]: 1.11%
viability, T/C [34]: 0.43%
viability, T/C [35]: 0.45%
viability, T/C [36]: 0.24%
viability, T/C [37]: 0.68%
viability, T/C [38]: 0.21%
viability, T/C [39]: 1.43%
viability, T/C [40]: 0.18%
viability, T/C [41]: 0.17%
viability, T/C [42]: 3.04%

SMILES: CCCS(=O)(=O)Nc1ccc(F)c(C(=O)c2c[nH]c3ncc(-c4ccc(Cl)cc4)cc23)c1F + CN1CCN(c2cc(C(=O)Nc3cc4cc(-c5cnn(C)c5)ccc4cn3)ccn2)CC1
IC50 [1]: > 10000 nM
IC50 [2]: > 10000 nM
IC50 [3]: < 31.6 nM
IC50 [4]: < 31.6 nM
IC50 [5]: < 31.6 nM
IC50 [6]: < 31.6 nM
viability, T/C [7]: 99.5%
viability, T/C [8]: 95.3%
viability, T/C [9]: 97.4%
viability, T/C [10]: 120%
viability, T/C [11]: 104%
viability, T/C [12]: 88.4%
viability, T/C [13]: 71.4%
viability, T/C [14]: 82.1%
viability, T/C [15]: 101%
viability, T/C [16]: 103%
viability, T/C [17]: 99.2%
viability, T/C [18]: 67.2%
viability, T/C [19]: 21.1%
viability, T/C [20]: 18.1%
viability, T/C [21]: 16%
viability, T/C [22]: 14.8%
viability, T/C [23]: 20.2%
viability, T/C [24]: 17.8%
viability, T/C [25]: 0.34%
viability, T/C [26]: 0.78%
viability, T/C [27]: 0.38%
viability, T/C [28]: 0.32%
viability, T/C [29]: 0.26%
viability, T/C [30]: 3.04%
viability, T/C [31]: 0.22%
viability, T/C [32]: 3.25%
viability, T/C [33]: 0.32%
viability, T/C [34]: 0.24%
viability, T/C [35]: 0.3%
viability, T/C [36]: 2.5%
viability, T/C [37]: 0.34%
viability, T/C [38]: 0.84%
viability, T/C [39]: 0.18%
viability, T/C [40]: 0.18%
viability, T/C [41]: 0.19%
viability, T/C [42]: 2%

SMILES: COC1C=CCC(C)C(C)S(=O)(=O)NC(=O)c2ccc3c(c2)N(CC2CCC21)CC1(CCCc2cc(Cl)ccc21)CO3 (stereo not given) + CN1CCN(c2cc(C(=O)Nc3cc4cc(-c5cnn(C)c5)ccc4cn3)ccn2)CC1
IC50 [1]: 1390 nM
IC50 [2]: 1150 nM
IC50 [3]: < 31.6 nM
IC50 [4]: < 31.6 nM
IC50 [5]: < 31.6 nM
IC50 [6]: < 31.6 nM
viability, T/C [7]: 101%
viability, T/C [8]: 93.2%
viability, T/C [9]: 66.2%
viability, T/C [10]: 60.8%
viability, T/C [11]: 34.7%
viability, T/C [12]: 18.2%
viability, T/C [13]: 77.1%
viability, T/C [14]: 74.3%
viability, T/C [15]: 65.2%
viability, T/C [16]: 56.1%
viability, T/C [17]: 15.2%
viability, T/C [18]: 8.09%
viability, T/C [19]: 21.6%
viability, T/C [20]: 14.9%
viability, T/C [21]: 11.8%
viability, T/C [22]: 6.03%
viability, T/C [23]: 6.07%
viability, T/C [24]: 5.99%
viability, T/C [25]: 0.48%
viability, T/C [26]: 0.33%
viability, T/C [27]: 1.14%
viability, T/C [28]: 0.2%
viability, T/C [29]: 2.7%
viability, T/C [30]: 1.73%
viability, T/C [31]: 0.85%
viability, T/C [32]: 0.74%
viability, T/C [33]: 0.27%
viability, T/C [34]: 0.44%
viability, T/C [35]: 0.33%
viability, T/C [36]: 1.12%
viability, T/C [37]: 0.79%
viability, T/C [38]: 0.24%
viability, T/C [39]: 0.61%
viability, T/C [40]: 0.22%
viability, T/C [41]: 1.51%
viability, T/C [42]: 0.24%
